According to patent US5559101A, “L-ribofuranosyl nucleosides” (priority 1994, dated 1996):
≈ marks a conversion by molar mass, not a printed value. Where two headings read alike, the source gives them in different places.

Legend:
[1] = In vitro survival of bone marrow control cells (radiometric BACTEC); assay type: cell-based; design: concentration or dose not given beside the values
Description: (§1) CELL LINES: Eight different established human cell lines CALU (lung), COLO320 (colon), H578St (breast), HT-29 (colon), MCF-7 (breast), OM-1 (colon), SKLU (lung) and SKMES(lung), and two control cell lines (bone marrow and/or fibroblast cells) were utilized. All cell lines were obtained from the Tumor Cloning Laboratory, Institute for Drug Development, Cancer Therapy and Research Center, San Antonio, Tex. All cell lines grew as monolayers in the appropriate culture medium supplemented with heat-inactivated calf serum. All reagents were obtained from Grand Island Biological Co., Grand Island, N.Y.
(§2) The iv formulations of the compounds of the present invention were prepared with sterile buffered saline and stored at -70° C. until required for testing.
(§3) Following trypsinization, tumor cells were suspended in tissue culture medium and exposed to the antitumor agents continuously at three different concentrations: 10, 1 and 0.1 μg/ml.
(§4) RADIOMETRIC MEASUREMENT OF GROWTH INHIBITION: Growth inhibition was assessed with the BACTEC System 460 (Johnston Laboratories, Towson, Md.) after addition of the antitumor agent to the cell in the respective growth medium containing ^14 C-glucose at a final concentration of 2 μCi/ml.
(§5) Two mls of the tumor cell suspension containing radioactive glucose were seeded into sterile, disposable 15 ml vials by injection through self-sealing rubber-aluminum caps. […] The seeded vials were then incubated at 37° C. Measurement of the release of ^14 CO2 resulting from the metabolism of ^14 C-glucose were performed on days 6, 9, 12 and 15 in the BACTEC instrument. This instrument flushes the ^14 CO2 containing air out of the vials into an ionization chamber that converts dpm to growth index values. […] Each data point represents triplicate values.
(§6) All compounds were dosed on an equimilimolar basis.

COLO320 (colon) = assay: Radiometric growth inhibition of tumor cells, COLO320; assay type: cell-based, human; design: % SURVIVAL TUMOR: concentration or dose not given beside the values; details: for IC50: Homo sapiens, COLO 320
Description: as §1, §2, §3, §4, §5, §6

HT29 (colon) = assay: Radiometric growth inhibition of tumor cells, HT29; assay type: cell-based, human; design: % SURVIVAL TUMOR: concentration or dose not given beside the values; details: for IC50: concentration required to kill 50%
Description: as §1, §2, §3, §4, §5, §6

OM-1 (colon) = assay: Radiometric growth inhibition of tumor cells, OM-1; assay type: cell-based, human; design: % SURVIVAL TUMOR: concentration or dose not given beside the values
Description: as §1, §2, §3, §4, §5, §6

SKLU (lung) = assay: Radiometric growth inhibition of tumor cells, SKLU; assay type: cell-based, human; design: % SURVIVAL TUMOR: concentration or dose not given beside the values
Description: as §1, §2, §3, §4, §5, §6

MCF-7 (breast) = assay: Radiometric growth inhibition of tumor cells, MCF-7; assay type: cell-based, human; design: % SURVIVAL TUMOR: concentration or dose not given beside the values; details: MCF-7; for IC50: concentration required to kill 50%; for % SURVIVAL TUMOR: continuous exposure
Description: as §1, §2, §3, §4, §5, §6

CALU (lung) = assay: Radiometric growth inhibition of tumor cells, CALU; assay type: cell-based, human; design: % SURVIVAL TUMOR: concentration or dose not given beside the values; details: for IC50: Homo sapiens, concentration required to kill 50%, read-out: IC 50
Description: as §1, §2, §3, §4, §5, §6

[2] = bone marrow control cells, continuous exposure, read-out: % SURVIVAL BONE MARROW
[3] = COLO320, concentration required to kill 50%, read-out: IC 50
[4] = Homo sapiens, HT-29, HT29, read-out: IC 50
[5] = Homo sapiens, OM-1, concentration required to kill 50%, read-out: IC 50
[6] = Homo sapiens, SKLU, concentration required to kill 50%, read-out: IC 50
[7] = Homo sapiens, MCF7, read-out: IC 50
[8] = human, colo320 colon tumor cells

Compound | viability [1, 2] [%] | IC50 (HT29 (colon); [4]) [µg/mL] | IC50 (OM-1 (colon); [5]) [µg/mL] | % SURVIVAL TUMOR (OM-1 (colon); OM-1, continuous exposure) [%] | IC50 (SKLU (lung); [6]) [µg/mL] | viability ([1]; bone marrow cells) [%] | other results
O=c1[nH]c(=O)n([C@H]2O[C@@H](CO)[C@H](O)[C@@H]2O)cc1F [β-L-ribofuranosyl-5-fluorouracil, 1-β-L-Ribofuranosyl-5-fluorouracil] | 130 | 51 (≈ 195 µM) | 37.8 (≈ 144 µM) | 71.9 | 32.2 (≈ 123 µM) |  | % SURVIVAL TUMOR (COLO320 (colon); COLO320, continuous exposure): 81.9%; IC50 (COLO320 (colon); [3]): 188 µg/mL (≈ 717 µM); % SURVIVAL TUMOR (HT29 (colon); HT29, continuous exposure): 64.7%; % SURVIVAL TUMOR (SKLU (lung); SKLU, continuous exposure): 69.7%
O=C(OC[C@@H]1O[C@@H](n2ccc(=S)[nH]c2=O)[C@@H](OC(=O)c2ccccc2)[C@H]1OC(=O)c1ccccc1)c1ccccc1 [1-(2,3,5-Tri-O-benzoyl-α-L-ribofuranosyl)-4-thiouracil] | 85.9 | > 10 |  |  |  |  | % SURVIVAL TUMOR (HT29 (colon); HT29, continuous exposure): 75%
2'-Deoxy-β-L-5-fluorouridine |  |  |  |  |  |  | IC50 (HT29 (colon); HT29): 85.2; IC50 (MCF-7 (breast)): 16.6; IC50 (OM-1 (colon); OM-1, concentration required to kill 50%): 62.9; IC50 (SKLU (lung); SKLU, concentration required to kill 50%): 32.5
Nc1ccn([C@@H]2O[C@@H](CO)[C@H](O)[C@@H]2O)c(=O)n1 [α-L-ribofuranosyl cytosine, 1-α-L-Ribofuranosylcytosine] | 120 |  |  |  |  |  | % SURVIVAL TUMOR (COLO320 (colon); COLO320, continuous exposure): 82.3%; IC50 (COLO320 (colon)): 34.9 µg/mL (≈ 143 µM); IC50 (SKLU (lung); Homo sapiens): 240 µg/mL (≈ 987 µM); % SURVIVAL TUMOR (SKLU (lung); SKLU, continuous exposure): 88.8%
O=c1ccn2c(n1)O[C@H]1[C@@H](O)[C@H](CO)O[C@H]12 [O^2,O^2' -Anhydro-1-α-L-ribofuranosyluracil] | 70.9 |  | 2.97 (≈ 13.1 µM) | 46.4 |  |  | 
O=c1ccn([C@H]2O[C@@H](CO)[C@H](O)[C@@H]2O)c(=O)[nH]1 [β-L-ribofuranosyl uracil, 1-β-L-Ribofuranosyluracil] |  | > 10 | 0.094 (≈ 0.385 µM) |  |  | 112 | % SURVIVAL TUMOR (HT29 (colon); human, ht29 colon tumor cells): 78.7%; % SURVIVAL TUMOR (OM-1 (colon); human, om-1 colon tumor cells): 30.8%
Nc1ncnc2c1ncn2[C@@H]1C[C@@H](O)[C@H](CO)O1 [2'-β-L-deoxy ribofuranosyl adenine] |  |  |  |  |  | 64.9 | IC50 (CALU (lung); CALU): 0.696 µg/mL (≈ 2.77 µM); % SURVIVAL TUMOR (CALU (lung); human, calu lung tumor cells): 28.9%
O=c1[nH]cnc2c1ncn2[C@@H]1C[C@@H](O)[C@H](CO)O1 [2'-β-L-deoxy ribofuranosyl hypoxanthine, 2'-Deoxy-β-L-inosine] |  |  | > 10 |  |  | 110 | % SURVIVAL TUMOR (OM-1 (colon); human, om-1 colon tumor cells): 83.1%
O=c1[nH]c(=S)ccn1[C@@H]1C[C@@H](O)[C@H](CO)O1 [2'-β-L-deoxy ribofuranosyl-4-thiouracil, 2'-Deoxy-β-L-4-thiouridine] | 98.2 |  | 34.3 (≈ 140 µM) | 82.3 | > 10 |  | % SURVIVAL TUMOR (SKLU (lung); SKLU, continuous exposure): 79.4%
NC1=N[C@H]2O[C@@H](CO)[C@H](O)[C@H]2O1 [2-Amino-β-L-arabinofurano[1',2':4,5]oxazoline] | 110 |  | 5 (≈ 28.7 µM) | 41.3 |  |  | % SURVIVAL TUMOR (CALU (lung); CALU, continuous exposure): 89%; IC50 (CALU (lung); CALU): 44.6 µg/mL (≈ 256 µM); IC50 (MCF-7 (breast); [7]): 187 µg/mL (≈ 1070 µM); % SURVIVAL TUMOR (MCF-7 (breast)): 88.8%
Nc1nc(O)c2ncn([C@H]3O[C@@H](CO)[C@H](O)[C@@H]3O)c2n1 [β-L-ribofuranosyl guanine, 9-β-L-Ribofuranosylguanine] | 170 | > 10 | 0.097 (≈ 0.342 µM) | 44.7 |  |  | % SURVIVAL TUMOR (HT29 (colon); HT29, continuous exposure): 80.9%
O=c1[nH]c(=O)n([C@@H]2O[C@@H](CO)[C@H](O)[C@@H]2O)cc1F [α-L-ribofuranosyl-5-fluorouracil, 1-α-L-ribofuranosyl-5-fluorouracil] | 94.6 |  | 0.87 (≈ 3.32 µM) | 0.4 | 43.4 (≈ 166 µM) |  | % SURVIVAL TUMOR (SKLU (lung); SKLU, continuous exposure): 71%
O=c1ccn([C@@H]2O[C@@H](CO)[C@H](O)[C@@H]2O)c(=O)[nH]1 [α-L-ribofuranosyl-uracil, 1-α-L-Ribofuranosyluracil] |  |  |  |  |  | 96.6 | IC50 (CALU (lung); CALU): > 10 µg/mL; % SURVIVAL TUMOR (CALU (lung); human, calu lung tumor cells): 89.1%
Cc1cn([C@@H]2C[C@@H](O)[C@H](CO)O2)c(=O)[nH]c1=O [2'-β-L-deoxy ribofuranosyl thymine, 2'-Deoxy-β-L-thymidine] |  | 30.4 (≈ 126 µM) | 6.5 (≈ 26.8 µM) |  | 38.2 (≈ 158 µM) | 159 | IC50 (COLO320 (colon); [3]): 57.4 µg/mL (≈ 237 µM); % SURVIVAL TUMOR (COLO320 (colon); [8]): 67.0%; % SURVIVAL TUMOR (HT29 (colon); human, ht29 colon tumor cells): 72.2%; % SURVIVAL TUMOR (OM-1 (colon); human, om-1 colon tumor cells): 37.6%; % SURVIVAL TUMOR (SKLU (lung); human, sklu lung tumor cells): 72.4%
NC1=N[C@@H]2O[C@@H](CO)[C@H](O)[C@@H]2O1 [2-Amino-α-L-ribofurano[1',2':4,5]oxazoline] | 115 |  | 0.026 (≈ 0.149 µM) | 2.6 |  |  | 
O=c1[nH]c(=O)n([C@@H]2C[C@@H](O)[C@H](CO)O2)cc1F [2'-Deoxy-β-L-5-fluorouridine] |  | 8.46 (≈ 34.4 µM) | 56.1 (≈ 228 µM) |  | 59.9 (≈ 243 µM) | 109 | IC50 (COLO320 (colon); [3]): 6.56 µg/mL (≈ 26.6 µM); % SURVIVAL TUMOR (COLO320 (colon); [8]): 19.6%; % SURVIVAL TUMOR (HT29 (colon); HT29, continuous exposure): 42.5%; IC50 (MCF-7 (breast); [7]): 60.7 µg/mL (≈ 247 µM); % SURVIVAL TUMOR (MCF-7 (breast)): 86.9%; % SURVIVAL TUMOR (OM-1 (colon); human, om-1 colon tumor cells): 85.2%; % SURVIVAL TUMOR (SKLU (lung); human, sklu lung tumor cells): 86.2%
Nc1ccn([C@H]2O[C@@H](CO)[C@H](O)[C@@H]2O)c(=O)n1 [β-L-ribofuranosyl cytosine, 1-β-L-Ribofuranosylcytosine] | 72.6 |  |  | 39.2 |  |  | IC50 (OM-1 (colon); Homo sapiens): 5.9 µg/mL (≈ 24.3 µM)
Nc1ncnc2c1ncn2[C@H]1O[C@@H](CO)[C@H](O)[C@@H]1O [β-L-ribofuranosyl adenine, 9-β-L-Ribofuranosyladenine] |  |  | 4.23 (≈ 15.8 µM) |  |  | 91.2 | % SURVIVAL TUMOR (OM-1 (colon); human, om-1 colon tumor cells): 50.9%
O=c1ccn([C@@H]2CC[C@H](CO)O2)c(=O)[nH]1 [2',3'-β-L-dideoxy ribofuranosyl uracil, 2',3'-Dideoxy-β-L-uridine] |  |  |  |  |  | 79.8 | % SURVIVAL TUMOR (CALU (lung); CALU, continuous exposure): 0.4%; IC50 (CALU (lung); CALU): 0.623 µg/mL (≈ 2.94 µM)
O=C(OC[C@@H]1O[C@H](n2ccc(=S)[nH]c2=O)C[C@H]1OC(=O)c1ccccc1)c1ccccc1 [3',5'-Di-O-benzoyl-2'deoxy-4-thio β-L-uridine] | 102 |  | 0.98 (≈ 2.17 µM) | 35.7 | 88.7 (≈ 196 µM) |  | IC50 (MCF-7 (breast); [7]): > 10 µg/mL; % SURVIVAL TUMOR (MCF-7 (breast)): 84.5%; % SURVIVAL TUMOR (SKLU (lung); SKLU, continuous exposure): 77.7%
